US20100035871A1, “BENZOXAZINE DERIVATIVES AND USES THEREOF” (priority 2006, published 2010)

Key:
human 5-HT2C receptor [1] = biological target: T1, human 5-HT2C receptor (Homo sapiens, UniProt P28335); test: 5-HT2C receptor binding, [125I]DOI displacement, membranes of transfected CHO cells; conditions: read-out: 5-HT2C Binding Ki avg
T1 construct: expressed in transfected cells; host or cells: CHO (Chinese Hamster Ovary) cells; membrane preparation
T1 sequence (P28335 33-458): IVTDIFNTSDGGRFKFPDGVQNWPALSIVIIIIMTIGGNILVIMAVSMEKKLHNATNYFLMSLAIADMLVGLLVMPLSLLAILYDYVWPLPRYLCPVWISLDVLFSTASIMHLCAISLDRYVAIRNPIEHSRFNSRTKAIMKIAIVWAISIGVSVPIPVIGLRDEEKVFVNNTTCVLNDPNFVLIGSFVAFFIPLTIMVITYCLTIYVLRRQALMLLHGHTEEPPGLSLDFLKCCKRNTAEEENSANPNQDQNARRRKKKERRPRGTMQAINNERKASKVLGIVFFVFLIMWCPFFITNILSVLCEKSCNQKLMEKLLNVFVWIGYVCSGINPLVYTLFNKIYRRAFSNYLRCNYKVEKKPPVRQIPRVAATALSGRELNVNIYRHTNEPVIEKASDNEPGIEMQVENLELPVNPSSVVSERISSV

human 5-HT2C receptor [2] = biological target: T1, human 5-HT2C receptor; test: 5-HT2C receptor-stimulated calcium mobilization (FLIPR) in CHO cells; assay type: cell-based; conditions: for Emax: CHO, read-out: 5-HT2C Function EMax (%); for EC50: calcium mobilization, CHO cells, read-out: 5-HT2C Function EC50

Row | Compound | Ki (human 5-HT2C receptor [1]) | Emax (human 5-HT2C receptor [2]) | EC50 (human 5-HT2C receptor [2])
1 | NC[C@H]1CNc2cccc(-c3ccccc3Cl)c2O1 [Example 39, 1-[(2S)-8-(2-chlorophenyl)-3,4-dihydro-2H-1,4-benzoxazin-2-yl]methanamine] | 14.8 nM | 60% | 6.87 nM
2 | NC[C@@H]1CNc2cccc(-c3ccccc3Cl)c2O1 [Example 40, 1-[(2R)-8-(2-chlorophenyl)-3,4-dihydro-2H-1,4-benzoxazin-2-yl]methanamine] | 60.5 nM | 45% | 44.3 nM
3 | NC[C@H]1CNc2cccc(-c3ccccc3C(F)(F)F)c2O1 [Example 47, 1-{(2S)-8-[2-(trifluoromethyl)phenyl]-3,4-dihydro-2H-1,4-benzoxazin-2-yl}methanamine] | 35 nM | 80% | 2.74 nM
4 | COc1ccc(-c2cccc3c2O[C@@H](CN)CN3)c(C)c1 [Example 50, 1-[(2S)-8-(4-methoxy-2-methylphenyl)-3,4-dihydro-2H-1,4-benzoxazin-2-yl]methanamine] | 33.3 nM | 74% | 0.72 nM

Further compounds by falling Ki (human 5-HT2C receptor [1]), results first:

Row | Ki (human 5-HT2C receptor [1]) | Emax (human 5-HT2C receptor [2]) | EC50 (human 5-HT2C receptor [2]) | Compound
5 | 16.6 nM | 62% | 10.5 nM | NC[C@@H]1CNc2cccc(-c3ccccc3C(F)(F)F)c2O1 [Example 41, 1-{(2R)-8-[2-(trifluoromethyl)phenyl]-3,4-dihydro-2H-1,4-benzoxazin-2-yl}methanamine]
6 | 9.05 nM | 78% | 0.17 nM | COc1ccc(-c2cccc3c2O[C@@H](CN)CN3)c(Cl)c1 [Example 52, 1-[(2S)-8-(2-chloro-4-methoxyphenyl)-3,4-dihydro-2H-1,4-benzoxazin-2-yl]methanamine]
